Results reported in US10670605B2, “Cysteine reactive probes and uses thereof” (The Scripps Research Institute, priority 2015, dated 2020).
Values joined by “and” are separate entries in the source; they are usually repeats but may differ in a detail not shown here. Equal values may be shown once. One block for each compound: values may come before it.

Tests used:
Assay in all cases: Competitive isoTOP-ABPP, cell lysates
Format in all cases: binding
DCUN1D1 C115 (Q96GG9) = DCUN1D1 C115 (Q96GG9) (Homo sapiens, UniProt Q96GG9)
GNB2L1 C182 (P63244) = GNB2L1 C182 (P63244) (Homo sapiens, UniProt P63244); details: for R value (DMSO/fragment) / isoTOP-ABPP ratio, P63244_C182: 500 μM
MGMT C150 (P16455) = target: T1, MGMT C150 (P16455) (Homo sapiens, UniProt P16455)
T1 sequence (P16455 1-207): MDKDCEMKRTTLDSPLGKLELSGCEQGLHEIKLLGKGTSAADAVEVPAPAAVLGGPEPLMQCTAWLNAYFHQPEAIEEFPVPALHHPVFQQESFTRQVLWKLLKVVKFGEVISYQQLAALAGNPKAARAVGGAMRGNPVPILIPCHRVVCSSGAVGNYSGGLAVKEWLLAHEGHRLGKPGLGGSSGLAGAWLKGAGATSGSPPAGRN

PCK2 C306 (Q16822) = target: T2, PCK2 C306 (Q16822) (Homo sapiens, UniProt Q16822); details: for R value (DMSO/fragment) / isoTOP-ABPP ratio, Q16822_C306: 500 μM
T2 sequence (Q16822 33-640): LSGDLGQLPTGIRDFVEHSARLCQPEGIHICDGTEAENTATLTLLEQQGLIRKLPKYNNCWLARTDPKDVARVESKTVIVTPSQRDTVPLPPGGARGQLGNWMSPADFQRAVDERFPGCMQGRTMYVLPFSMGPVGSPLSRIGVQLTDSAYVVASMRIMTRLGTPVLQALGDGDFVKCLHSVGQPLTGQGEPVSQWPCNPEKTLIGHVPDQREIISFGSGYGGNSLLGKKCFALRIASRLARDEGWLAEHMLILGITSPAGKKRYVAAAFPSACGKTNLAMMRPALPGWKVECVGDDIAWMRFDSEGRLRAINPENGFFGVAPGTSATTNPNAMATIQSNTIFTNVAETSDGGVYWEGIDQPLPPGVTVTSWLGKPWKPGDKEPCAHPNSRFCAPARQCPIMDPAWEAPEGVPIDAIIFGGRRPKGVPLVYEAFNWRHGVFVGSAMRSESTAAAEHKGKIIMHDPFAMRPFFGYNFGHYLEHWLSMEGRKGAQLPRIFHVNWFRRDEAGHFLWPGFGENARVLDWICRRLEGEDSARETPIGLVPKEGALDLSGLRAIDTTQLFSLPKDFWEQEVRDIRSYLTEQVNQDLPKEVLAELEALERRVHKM

PRMT1 C109 (Q99873) = PRMT1 C109 (Q99873) (Homo sapiens, UniProt Q99873); details: for R value (DMSO/fragment) / isoTOP-ABPP ratio, Q99873_C109: 500 μM
SAMHD1 C522 (Q9Y3Z3) = SAMHD1 C522 (Q9Y3Z3) (Homo sapiens, UniProt Q9Y3Z3)
STAT3 C259 (P40763) = STAT3 C259 (P40763) (Homo sapiens, UniProt P40763)
UBE2L3 C86 (P68036) = UBE2L3 C86 (P68036) (Homo sapiens, UniProt P68036); details: for R value (DMSO/fragment) / isoTOP-ABPP ratio, P68036_C86: 500 μM
UCHL3 C95 (P15374) = target: T3, UCHL3 C95 (P15374) (Homo sapiens, UniProt P15374)
T3 sequence (P15374 1-230): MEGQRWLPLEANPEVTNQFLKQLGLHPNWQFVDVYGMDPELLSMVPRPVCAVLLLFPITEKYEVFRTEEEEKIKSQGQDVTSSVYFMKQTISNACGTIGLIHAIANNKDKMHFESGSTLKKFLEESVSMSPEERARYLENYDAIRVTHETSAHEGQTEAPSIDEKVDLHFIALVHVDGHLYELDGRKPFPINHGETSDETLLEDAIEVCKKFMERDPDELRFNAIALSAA

ZNF217 C286 (O75362) = ZNF217 C286 (O75362) (Homo sapiens, UniProt O75362)

isoTOP-ABPP ratio (reactivity profile), Q96GG9_C115 (DCUN1D1 C115 (Q96GG9); 500 μm in-vitro ramos): 1.0
isoTOP-ABPP ratio (reactivity profile), Q96GG9_C115 (DCUN1D1 C115 (Q96GG9); 500 μm in-vitro ramos_231): 1.1
isoTOP-ABPP ratio (reactivity profile), P63244_C182 (GNB2L1 C182 (P63244); 500 μm in-vitro ramos): 1.1
isoTOP-ABPP ratio (reactivity profile), P63244_C182 (GNB2L1 C182 (P63244); 500 μm in-vitro ramos_231): 1.0 and 0.8
isoTOP-ABPP ratio (reactivity profile), P16455_C150 (MGMT C150 (P16455); 500 μm in-vitro ramos): 2.3
isoTOP-ABPP ratio (reactivity profile), P16455_C150 (MGMT C150 (P16455); 500 μm in-vitro ramos_231): 1.0
isoTOP-ABPP ratio (reactivity profile), Q16822_C306 (PCK2 C306 (Q16822); 500 μm in-vitro ramos): 1.1
isoTOP-ABPP ratio (reactivity profile), Q16822_C306 (PCK2 C306 (Q16822); 500 μm in-vitro ramos_231): 1.4 and 1.5
isoTOP-ABPP ratio (reactivity profile), Q99873_C109 (PRMT1 C109 (Q99873); 500 μm in-vitro ramos): 1.0
isoTOP-ABPP ratio (reactivity profile), Q99873_C109 (PRMT1 C109 (Q99873); 500 μm in-vitro ramos_231): 0.7 and 0.9
isoTOP-ABPP ratio (reactivity profile), Q9Y3Z3_C522 (SAMHD1 C522 (Q9Y3Z3); 500 μm in-vitro ramos): 0.9
isoTOP-ABPP ratio (reactivity profile), Q9Y3Z3_C522 (SAMHD1 C522 (Q9Y3Z3); 500 μm in-vitro ramos_231): 0.8 and 1.0
isoTOP-ABPP ratio (reactivity profile), P40763_C259 (STAT3 C259 (P40763); 500 μm in-vitro ramos_231): 0.7
isoTOP-ABPP ratio (reactivity profile), P68036_C86 (UBE2L3 C86 (P68036); 500 μm in-vitro ramos_231): 1.2 and 0.9
isoTOP-ABPP ratio (reactivity profile), P15374_C95 (UCHL3 C95 (P15374); 500 μm in-vitro ramos): 1.0
isoTOP-ABPP ratio (reactivity profile), P15374_C95 (UCHL3 C95 (P15374); 500 μm in-vitro ramos_231): 0.4
isoTOP-ABPP ratio (reactivity profile), O75362_C286 (ZNF217 C286 (O75362); 500 μm in-vitro ramos): 1.0
SMILES: CC(C)CCOCCNC(=O)CCl [compound 27]

R value (DMSO/fragment) (DCUN1D1 C115 (Q96GG9); 500 μM, invitro, ramos): 5.5
R value (DMSO/fragment) (GNB2L1 C182 (P63244); in vitro, MDA-MB-231): 20.0
R value (DMSO/fragment) (GNB2L1 C182 (P63244); invitro, ramos): 4.7
R value (DMSO/fragment) (MGMT C150 (P16455); 500 μM, invitro, ramos): 17.1
R value (DMSO/fragment) (PCK2 C306 (Q16822); in vitro, MDA-MB-231): 10.6
R value (DMSO/fragment) (PCK2 C306 (Q16822); invitro, ramos): 0.9
R value (DMSO/fragment) (PRMT1 C109 (Q99873); in vitro, MDA-MB-231): 1.3
R value (DMSO/fragment) (PRMT1 C109 (Q99873); invitro, ramos): 1.8
R value (DMSO/fragment) (SAMHD1 C522 (Q9Y3Z3); 500 μM, in vitro, MDA-MB-231): 2.6
R value (DMSO/fragment) (STAT3 C259 (P40763); 500 μM, in vitro, MDA-MB-231): 2.5
R value (DMSO/fragment) (STAT3 C259 (P40763); 500 μM, invitro, ramos): 2.9
R value (DMSO/fragment) (UBE2L3 C86 (P68036); in vitro, MDA-MB-231): 1.2
R value (DMSO/fragment) (UBE2L3 C86 (P68036); invitro, ramos): 3.0
R value (DMSO/fragment) (UCHL3 C95 (P15374); 500 μM, in vitro, MDA-MB-231): 1.7
R value (DMSO/fragment) (UCHL3 C95 (P15374); 500 μM, invitro, ramos): 1.4
R value (DMSO/fragment) (ZNF217 C286 (O75362); 500 μM, in vitro, MDA-MB-231): 1.4
SMILES: O=C(CCl)Nc1cc(C(F)(F)F)cc(C(F)(F)F)c1 [compound 3]

isoTOP-ABPP ratio (reactivity profile), Q96GG9_C115 (DCUN1D1 C115 (Q96GG9); 500 μm in-vitro ramos): 1.0
isoTOP-ABPP ratio (reactivity profile), Q96GG9_C115 (DCUN1D1 C115 (Q96GG9); 500 μm in-vitro ramos_231): 1.0
isoTOP-ABPP ratio (reactivity profile), P63244_C182 (GNB2L1 C182 (P63244); 500 μm in-vitro ramos): 0.9
isoTOP-ABPP ratio (reactivity profile), P63244_C182 (GNB2L1 C182 (P63244); 500 μm in-vitro ramos_231): 0.9
isoTOP-ABPP ratio (reactivity profile), P16455_C150 (MGMT C150 (P16455); 500 μm in-vitro ramos): 17.2
isoTOP-ABPP ratio (reactivity profile), Q16822_C306 (PCK2 C306 (Q16822); 500 μm in-vitro ramos): 2.0
isoTOP-ABPP ratio (reactivity profile), Q16822_C306 (PCK2 C306 (Q16822); 500 μm in-vitro ramos_231): 1.2
isoTOP-ABPP ratio (reactivity profile), Q99873_C109 (PRMT1 C109 (Q99873); 500 μm in-vitro ramos): 1.5
isoTOP-ABPP ratio (reactivity profile), Q99873_C109 (PRMT1 C109 (Q99873); 500 μm in-vitro ramos_231): 1.1
isoTOP-ABPP ratio (reactivity profile), Q9Y3Z3_C522 (SAMHD1 C522 (Q9Y3Z3); 500 μm in-vitro ramos): 1.4
isoTOP-ABPP ratio (reactivity profile), P40763_C259 (STAT3 C259 (P40763); 500 μm in-vitro ramos): 2.9
isoTOP-ABPP ratio (reactivity profile), P68036_C86 (UBE2L3 C86 (P68036); 500 μm in-vitro ramos): 2.0
isoTOP-ABPP ratio (reactivity profile), P68036_C86 (UBE2L3 C86 (P68036); 500 μm in-vitro ramos_231): 1.2
isoTOP-ABPP ratio (reactivity profile), P15374_C95 (UCHL3 C95 (P15374); 500 μm in-vitro ramos_231): 1.1
isoTOP-ABPP ratio (reactivity profile), O75362_C286 (ZNF217 C286 (O75362); 500 μm in-vitro ramos_231): 0.9
SMILES: O=C(CCl)NC12CC3CC(CC(C3)C1)C2 [compound 21]

isoTOP-ABPP ratio, Q96GG9_C115 (DCUN1D1 C115 (Q96GG9); 500 μM, invitro, 231): 1.3
isoTOP-ABPP ratio, Q96GG9_C115 (DCUN1D1 C115 (Q96GG9); 500 μM, invitro, ramos): 1.0
isoTOP-ABPP ratio, P63244_C182 (GNB2L1 C182 (P63244); invitro, 231): 1.1
isoTOP-ABPP ratio, P63244_C182 (GNB2L1 C182 (P63244); invitro, ramos): 1.1
isoTOP-ABPP ratio, P16455_C150 (MGMT C150 (P16455); 500 μM, invitro, ramos): 20.0
isoTOP-ABPP ratio, Q16822_C306 (PCK2 C306 (Q16822); invitro, 231): 1.9
isoTOP-ABPP ratio, Q16822_C306 (PCK2 C306 (Q16822); invitro, ramos): 1.1
isoTOP-ABPP ratio, Q99873_C109 (PRMT1 C109 (Q99873); invitro, 231): 2.3
isoTOP-ABPP ratio, Q99873_C109 (PRMT1 C109 (Q99873); invitro, ramos): 1.3
isoTOP-ABPP ratio, Q9Y3Z3_C522 (SAMHD1 C522 (Q9Y3Z3); 500 μM, invitro, 231): 1.8
isoTOP-ABPP ratio, P40763_C259 (STAT3 C259 (P40763); 500 μM, invitro, 231): 3.4
isoTOP-ABPP ratio, P68036_C86 (UBE2L3 C86 (P68036); invitro, 231): 1.1
isoTOP-ABPP ratio, P68036_C86 (UBE2L3 C86 (P68036); invitro, ramos): 0.4
isoTOP-ABPP ratio, P15374_C95 (UCHL3 C95 (P15374); 500 μM, invitro, 231): 2.0
isoTOP-ABPP ratio O75362_C286 (ZNF217 C286 (O75362); 500 μM, invitro, 231): 1.1
SMILES: O=C(CCl)N1CCN(S(=O)(=O)c2ccccc2F)CC1 [compound 10]
